± gives the expanded uncertainty stated by the source.
Test: mn = molality of the nth substance listed, in mol/kg
Conditions: 101 kPa, Liquid, Capillary tube (Ostwald / Ubbelohde) method

`NCC(=O)O` [2-aminoacetic acid] + O showed a viscosity (293.15 K, m1 = 0.025) of 1.011 ± 0.0083 mPa·s, a viscosity (293.15 K, m1 = 0.05) of 1.016 ± 0.0082 mPa·s and a viscosity (293.15 K, m1 = 0.1) of 1.022 ± 0.0082 mPa·s. The viscosity (298.15 K, m1 = 0.025) was 0.8923 ± 0.0072 mPa·s, the viscosity (298.15 K, m1 = 0.05) was 0.8947 ± 0.0073 mPa·s and the viscosity (298.15 K, m1 = 0.1) was 0.9011 ± 0.0075 mPa·s. It also gave a viscosity (303.15 K, m1 = 0.025) of 0.7994 ± 0.0068 mPa·s, a viscosity (303.15 K, m1 = 0.05) of 0.8017 ± 0.0068 mPa·s and a viscosity (303.15 K, m1 = 0.1) of 0.8056 ± 0.0068 mPa·s. The viscosity (308.15 K, m1 = 0.025) was 0.7201 ± 0.0064 mPa·s, the viscosity (308.15 K, m1 = 0.05) was 0.7213 ± 0.0064 mPa·s and the viscosity (308.15 K, m1 = 0.1) was 0.7236 ± 0.0064 mPa·s. For the same compound, the viscosity (313.15 K, m1 = 0.025) was 0.6549 ± 0.0061 mPa·s, the viscosity (313.15 K, m1 = 0.05) was 0.6563 ± 0.0061 mPa·s and the viscosity (313.15 K, m1 = 0.1) was 0.6582 ± 0.0061 mPa·s.

`OC[C@H]1OC(OC[C@H]2OC(O[C@]3(CO)O[C@H](CO)[C@@H](O)[C@@H]3O)[C@H](O)[C@@H](O)[C@@H]2O)[C@H](O)[C@@H](O)[C@H]1O` (stereo partly drawn) [D-(+)-raffinose] + O gave a viscosity (293.15 K, m1 = 0.05) of 1.056 ± 0.01 mPa·s, a viscosity (293.15 K, m1 = 0.055) of 1.061 ± 0.01 mPa·s and a viscosity (293.15 K, m1 = 0.06) of 1.066 ± 0.0095 mPa·s. For the same compound, the viscosity (293.15 K, m1 = 0.065) was 1.071 ± 0.0083 mPa·s, the viscosity (293.15 K, m1 = 0.07) was 1.079 ± 0.0083 mPa·s and the viscosity (293.15 K, m1 = 0.075) was 1.087 ± 0.0094 mPa·s. It also gave a viscosity (293.15 K, m1 = 0.08) of 1.095 ± 0.012 mPa·s, a viscosity (293.15 K, m1 = 0.085) of 1.101 ± 0.011 mPa·s and a viscosity (293.15 K, m1 = 0.09) of 1.108 ± 0.02 mPa·s. The viscosity (293.15 K, m1 = 0.1) was 1.118 ± 0.01 mPa·s, the viscosity (298.15 K, m1 = 0.05) was 0.9281 ± 0.0077 mPa·s and the viscosity (298.15 K, m1 = 0.055) was 0.9343 ± 0.0077 mPa·s. It also gave a viscosity (298.15 K, m1 = 0.06) of 0.94 ± 0.0097 mPa·s, a viscosity (298.15 K, m1 = 0.065) of 0.9448 ± 0.0097 mPa·s and a viscosity (298.15 K, m1 = 0.07) of 0.9488 ± 0.0095 mPa·s. For the same compound, the viscosity (298.15 K, m1 = 0.075) was 0.9553 ± 0.01 mPa·s, the viscosity (298.15 K, m1 = 0.08) was 0.9597 ± 0.01 mPa·s and the viscosity (298.15 K, m1 = 0.085) was 0.9674 ± 0.0096 mPa·s. The viscosity (298.15 K, m1 = 0.09) was 0.9724 ± 0.01 mPa·s, the viscosity (298.15 K, m1 = 0.1) was 0.9824 ± 0.013 mPa·s and the viscosity (303.15 K, m1 = 0.05) was 0.8259 ± 0.0072 mPa·s. The viscosity (303.15 K, m1 = 0.055) was 0.8302 ± 0.0074 mPa·s, the viscosity (303.15 K, m1 = 0.06) was 0.8349 ± 0.0087 mPa·s and the viscosity (303.15 K, m1 = 0.065) was 0.8402 ± 0.0088 mPa·s. The viscosity (303.15 K, m1 = 0.07) was 0.8435 ± 0.0086 mPa·s, the viscosity (303.15 K, m1 = 0.075) was 0.8485 ± 0.0086 mPa·s and the viscosity (303.15 K, m1 = 0.08) was 0.8521 ± 0.0091 mPa·s. The viscosity (303.15 K, m1 = 0.085) was 0.8569 ± 0.0088 mPa·s, the viscosity (303.15 K, m1 = 0.09) was 0.8631 ± 0.0092 mPa·s and the viscosity (303.15 K, m1 = 0.1) was 0.8719 ± 0.011 mPa·s. For the same compound, the viscosity (308.15 K, m1 = 0.05) was 0.7393 ± 0.0068 mPa·s, the viscosity (308.15 K, m1 = 0.055) was 0.7424 ± 0.007 mPa·s and the viscosity (308.15 K, m1 = 0.06) was 0.7474 ± 0.0079 mPa·s. For the same compound, the viscosity (308.15 K, m1 = 0.065) was 0.7516 ± 0.0081 mPa·s, the viscosity (308.15 K, m1 = 0.07) was 0.7547 ± 0.0079 mPa·s and the viscosity (308.15 K, m1 = 0.075) was 0.7585 ± 0.0079 mPa·s. For the same compound, the viscosity (308.15 K, m1 = 0.08) was 0.7625 ± 0.008 mPa·s, the viscosity (308.15 K, m1 = 0.085) was 0.7663 ± 0.0078 mPa·s and the viscosity (308.15 K, m1 = 0.09) was 0.77 ± 0.008 mPa·s. For the same compound, the viscosity (308.15 K, m1 = 0.1) was 0.7775 ± 0.01 mPa·s, the viscosity (313.15 K, m1 = 0.05) was 0.6657 ± 0.0075 mPa·s and the viscosity (313.15 K, m1 = 0.055) was 0.6688 ± 0.0076 mPa·s. It also gave a viscosity (313.15 K, m1 = 0.06) of 0.673 ± 0.008 mPa·s, a viscosity (313.15 K, m1 = 0.065) of 0.6764 ± 0.0086 mPa·s and a viscosity (313.15 K, m1 = 0.07) of 0.6792 ± 0.011 mPa·s. It also gave a viscosity (313.15 K, m1 = 0.075) of 0.6822 ± 0.0063 mPa·s, a viscosity (313.15 K, m1 = 0.08) of 0.6857 ± 0.0074 mPa·s and a viscosity (313.15 K, m1 = 0.085) of 0.6881 ± 0.0073 mPa·s. For the same compound, the viscosity (313.15 K, m1 = 0.09) was 0.6925 ± 0.011 mPa·s and the viscosity (313.15 K, m1 = 0.1) was 0.698 ± 0.0071 mPa·s.

Work on `O=C[C@H](O)[C@H](O)[C@H](O)CO` [D-ribose] + O yielded a viscosity (293.15 K, m1 = 0.05) of 1.019 ± 0.0084 mPa·s, a viscosity (293.15 K, m1 = 0.055) of 1.021 ± 0.0083 mPa·s and a viscosity (293.15 K, m1 = 0.06) of 1.022 ± 0.012 mPa·s. It also gave a viscosity (293.15 K, m1 = 0.065) of 1.024 ± 0.016 mPa·s, a viscosity (293.15 K, m1 = 0.07) of 1.026 ± 0.0082 mPa·s and a viscosity (293.15 K, m1 = 0.075) of 1.027 ± 0.013 mPa·s. For the same compound, the viscosity (293.15 K, m1 = 0.08) was 1.029 ± 0.0084 mPa·s, the viscosity (293.15 K, m1 = 0.085) was 1.031 ± 0.0085 mPa·s and the viscosity (293.15 K, m1 = 0.09) was 1.033 ± 0.0093 mPa·s. For the same compound, the viscosity (293.15 K, m1 = 0.1) was 1.035 ± 0.0084 mPa·s, the viscosity (298.15 K, m1 = 0.05) was 0.9032 ± 0.0076 mPa·s and the viscosity (298.15 K, m1 = 0.055) was 0.9047 ± 0.0076 mPa·s. It also gave a viscosity (298.15 K, m1 = 0.06) of 0.906 ± 0.0074 mPa·s, a viscosity (298.15 K, m1 = 0.065) of 0.9073 ± 0.0074 mPa·s and a viscosity (298.15 K, m1 = 0.07) of 0.9085 ± 0.0074 mPa·s. For the same compound, the viscosity (298.15 K, m1 = 0.075) was 0.91 ± 0.0074 mPa·s, the viscosity (298.15 K, m1 = 0.08) was 0.9114 ± 0.0075 mPa·s and the viscosity (298.15 K, m1 = 0.085) was 0.9127 ± 0.0074 mPa·s. For the same compound, the viscosity (298.15 K, m1 = 0.09) was 0.9143 ± 0.0074 mPa·s, the viscosity (298.15 K, m1 = 0.1) was 0.9168 ± 0.0092 mPa·s and the viscosity (303.15 K, m1 = 0.05) was 0.8071 ± 0.007 mPa·s. It also gave a viscosity (303.15 K, m1 = 0.055) of 0.8082 ± 0.007 mPa·s, a viscosity (303.15 K, m1 = 0.06) of 0.8092 ± 0.0069 mPa·s and a viscosity (303.15 K, m1 = 0.065) of 0.8101 ± 0.0069 mPa·s. For the same compound, the viscosity (303.15 K, m1 = 0.07) was 0.8113 ± 0.0069 mPa·s, the viscosity (303.15 K, m1 = 0.075) was 0.8125 ± 0.0069 mPa·s and the viscosity (303.15 K, m1 = 0.08) was 0.8135 ± 0.0069 mPa·s. The viscosity (303.15 K, m1 = 0.085) was 0.8146 ± 0.0069 mPa·s, the viscosity (303.15 K, m1 = 0.09) was 0.8157 ± 0.0069 mPa·s and the viscosity (303.15 K, m1 = 0.1) was 0.8183 ± 0.0083 mPa·s. For the same compound, the viscosity (308.15 K, m1 = 0.05) was 0.7261 ± 0.0065 mPa·s, the viscosity (308.15 K, m1 = 0.055) was 0.727 ± 0.0065 mPa·s and the viscosity (308.15 K, m1 = 0.06) was 0.7277 ± 0.0064 mPa·s. The viscosity (308.15 K, m1 = 0.065) was 0.7286 ± 0.0064 mPa·s, the viscosity (308.15 K, m1 = 0.07) was 0.7292 ± 0.0065 mPa·s and the viscosity (308.15 K, m1 = 0.075) was 0.7302 ± 0.0065 mPa·s. For the same compound, the viscosity (308.15 K, m1 = 0.08) was 0.7313 ± 0.0065 mPa·s, the viscosity (308.15 K, m1 = 0.085) was 0.7321 ± 0.0065 mPa·s and the viscosity (308.15 K, m1 = 0.09) was 0.7333 ± 0.0065 mPa·s. It also gave a viscosity (308.15 K, m1 = 0.1) of 0.7353 ± 0.0073 mPa·s, a viscosity (313.15 K, m1 = 0.05) of 0.657 ± 0.0061 mPa·s and a viscosity (313.15 K, m1 = 0.055) of 0.6576 ± 0.0061 mPa·s. It also gave a viscosity (313.15 K, m1 = 0.06) of 0.6581 ± 0.0087 mPa·s, a viscosity (313.15 K, m1 = 0.065) of 0.6587 ± 0.017 mPa·s and a viscosity (313.15 K, m1 = 0.07) of 0.6595 ± 0.0065 mPa·s. For the same compound, the viscosity (313.15 K, m1 = 0.075) was 0.6601 ± 0.0093 mPa·s, the viscosity (313.15 K, m1 = 0.08) was 0.6607 ± 0.0061 mPa·s and the viscosity (313.15 K, m1 = 0.085) was 0.6616 ± 0.0062 mPa·s. It also gave a viscosity (313.15 K, m1 = 0.09) of 0.6626 ± 0.0087 mPa·s and a viscosity (313.15 K, m1 = 0.1) of 0.6642 ± 0.0062 mPa·s.

`CC(C)C[C@H](N)C(=O)O` [L-leucine] + O gave a viscosity (293.15 K, m1 = 0.025) of 1.02 ± 0.0085 mPa·s, a viscosity (293.15 K, m1 = 0.05) of 1.022 ± 0.0082 mPa·s and a viscosity (293.15 K, m1 = 0.1) of 1.026 ± 0.0085 mPa·s. The viscosity (298.15 K, m1 = 0.025) was 0.8932 ± 0.0073 mPa·s, the viscosity (298.15 K, m1 = 0.05) was 0.8936 ± 0.0073 mPa·s and the viscosity (298.15 K, m1 = 0.1) was 0.8992 ± 0.0075 mPa·s. It also gave a viscosity (303.15 K, m1 = 0.025) of 0.7948 ± 0.0068 mPa·s, a viscosity (303.15 K, m1 = 0.05) of 0.8021 ± 0.0069 mPa·s and a viscosity (303.15 K, m1 = 0.1) of 0.8011 ± 0.0068 mPa·s. For the same compound, the viscosity (308.15 K, m1 = 0.025) was 0.7187 ± 0.0064 mPa·s, the viscosity (308.15 K, m1 = 0.05) was 0.7237 ± 0.0064 mPa·s and the viscosity (308.15 K, m1 = 0.1) was 0.7223 ± 0.0064 mPa·s. For the same compound, the viscosity (313.15 K, m1 = 0.025) was 0.6481 ± 0.0061 mPa·s, the viscosity (313.15 K, m1 = 0.05) was 0.6571 ± 0.0062 mPa·s and the viscosity (313.15 K, m1 = 0.1) was 0.6533 ± 0.0062 mPa·s.
